Experimental data reported in patent US20010027175A1, “Use of certain drugs for treating nerve root injury” (priority 1998, published 2001).

Columns and labels:
[1] = target: inducible nitrogen oxide synthetase (Homo sapiens, UniProt P35228); settings: by inhibiting inducible nitrogen oxide synthetase; cited from earlier work
[2] = system: nucleus pulposus-induced reduction of nerve root conduction velocity (sacrococcygeal cauda equina); test: Series-2: nerve root conduction velocity three days after autologous nucleus pulposus application to the cauda equina; format: in vivo; settings: pig, mean ± SD
Procedure: Series-2: Nucleus pulposus was harvested from lumbar discs and applied to the sacrococcygeal cauda equina in 13 pigs autologously. […] Three days after the application the nerve root conduction velocity was determined over the application zone by local electrical stimulation.
Thirteen pigs, (body weight 25-30 kg) received an intramuscular injection of 20 mg/kg body weight of Ketala (ketamine 50 mg/ml, Parke-Davis, Morris Plains, N.J.) and an intravenous injection of 4 mg/kg body weight of Hypnodil^R (methomidate chloride 50 mg/ml, AB Leo, Helsingborg, Sweden) and 0.I mg/kg body weight of Stresnil^R (azaperon 2 mg/ml, Janssen Pharmaceutica, Beerse, Belgium). […]
Three days after the application, the pigs were reanaesthetized by an intramuscular injection of 20 mg/kg body weight of Ketalar^R and an intravenous injection of 35 mg/kg body weight of Pentothal^R (Thiopental sodium, Abbott lab, Chicago, Ill.). […] Local tissue temperature was continuously monitored and maintained at 37.5-38.0° C. by means of a heating lamp. […]
The person performing the neurophysiologic analyses was unaware of the experimental protocol for the individual animal, and after finishing the complete study the data were arranged in the three experimental groups and statistical differences between the groups were assessed by Student's t-test. […]

[3] = system: nucleus pulposus-related effects on adjacent nerve roots; settings: literature refs 38, 2, 3, 69; cited from earlier work
[4] = system: nucleus pulposus-induced reduction of nerve root conduction velocity (sacrococcygeal cauda equina); test: Series-3: nerve root conduction velocity seven days after autologous nucleus pulposus application to the cauda equina; format: in vivo; settings: pig; for NCV (m/s ± SD): seven days after nucleus pulposus application, mean ± SD; for block of nucleus pulposus induced nerve injury (in words): seven days, systemic treatment
Procedure: Series-3: Thirteen pigs had autologous nucleus pulposus placed onto their sacrococcygeal cauda equina similar to series-2. Five pigs (bodyweight 25 kg) received Remicade^R (infliximab) 100 mg i.v. preoperatively, and 8 pigs received EnbrelR (etanercept) 12.5 mg s.c. preoperatively and additionally 12.5 mg s.c. three days after the operation. Seven days after the nucleus pulposus-application the nerve root conduction velocity was determined over the application zone by local electrical stimulation according to series-2. Five pigs (bodyweight 25 kg) received the human/murine monoclonal antibody Remicade^R (infliximab, […]) 100 mg i.v. preoperatively, and 8 pigs received Enbrel^R (etanercept, […]) 12.5 mg s.c. preoperatively and additionally 12.5 mg s.c. three days after the operation. Seven days after the nucleus pulposus-application the nerve root conduction velocity was determined over the application zone by local electrical stimulation according to series-2. […] No non-treated animals were included in the series-3 due to the pre-existing knowledge of nerve conduction velocity after seven days of either nucleus pulposus or fat (control) application. The statistical difference between the groups, infliximab, and etanercept, nucleus pulposus without treatment (positive control from previous data) and application of retroperitoneal fat (negative control from previous data) was assessed by using ANOVA and Fisher's PLSD at 5%.

Sequence of inducible nitrogen oxide synthetase (P35228 whole entry): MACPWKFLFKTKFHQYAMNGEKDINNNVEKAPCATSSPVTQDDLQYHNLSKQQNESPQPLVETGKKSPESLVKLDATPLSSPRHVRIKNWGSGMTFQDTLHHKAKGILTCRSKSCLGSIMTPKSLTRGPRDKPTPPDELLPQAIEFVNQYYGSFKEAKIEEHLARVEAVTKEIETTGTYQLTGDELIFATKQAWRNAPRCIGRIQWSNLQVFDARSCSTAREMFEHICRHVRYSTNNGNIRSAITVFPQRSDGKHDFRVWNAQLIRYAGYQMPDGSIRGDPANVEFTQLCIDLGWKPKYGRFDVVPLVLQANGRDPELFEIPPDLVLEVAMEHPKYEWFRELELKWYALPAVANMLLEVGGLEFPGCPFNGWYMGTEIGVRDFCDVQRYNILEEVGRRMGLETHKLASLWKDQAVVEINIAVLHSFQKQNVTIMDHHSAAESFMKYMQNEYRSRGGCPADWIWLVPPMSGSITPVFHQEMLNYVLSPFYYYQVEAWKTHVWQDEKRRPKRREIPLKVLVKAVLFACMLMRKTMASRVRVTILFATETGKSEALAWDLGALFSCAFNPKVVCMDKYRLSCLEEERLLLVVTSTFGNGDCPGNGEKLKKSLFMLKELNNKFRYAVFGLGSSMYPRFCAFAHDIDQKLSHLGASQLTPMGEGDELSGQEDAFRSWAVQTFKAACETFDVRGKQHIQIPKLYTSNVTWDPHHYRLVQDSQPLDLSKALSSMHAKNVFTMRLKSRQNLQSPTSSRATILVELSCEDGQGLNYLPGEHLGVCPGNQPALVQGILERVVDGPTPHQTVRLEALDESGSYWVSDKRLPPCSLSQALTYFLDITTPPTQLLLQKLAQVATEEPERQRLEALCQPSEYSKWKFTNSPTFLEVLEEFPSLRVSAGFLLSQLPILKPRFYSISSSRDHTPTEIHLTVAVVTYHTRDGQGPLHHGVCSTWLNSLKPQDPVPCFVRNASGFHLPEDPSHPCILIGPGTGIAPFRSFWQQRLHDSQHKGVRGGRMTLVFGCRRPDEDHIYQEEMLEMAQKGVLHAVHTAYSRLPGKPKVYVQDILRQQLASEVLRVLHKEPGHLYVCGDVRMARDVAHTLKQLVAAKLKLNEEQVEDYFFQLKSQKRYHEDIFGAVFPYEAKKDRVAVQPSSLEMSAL

## N=C(N)NN [Aminoguanidine]
[1]
  inhibition of release of nitrogen oxide (NO) at nerve root injuries (in words): inhibit the release of nitrogen oxide (NO)

## C[C@H]1c2cccc(O)c2C(=O)C2=C(O)[C@]3(O)C(=O)C(C(N)=O)=C(O)[C@@H](N(C)C)[C@@H]3[C@@H](O)[C@@H]21 [Doxycycline, doxycycline]
[2]
  NCV (m/s ± SD): 76 ± 9 m/s

## COc1ccc2c(c1)c(CC(=O)O)c(C)n2C(=O)c1ccc(Cl)cc1 [indomethacin]
[3]
  block of nucleus pulposus-related effects (in words): slightly less efficiently

## CCN(CC)CC(=O)Nc1c(C)cccc1C [lidocaine]
[3]
  block of nucleus pulposus-related effects (in words): slightly less efficiently

## cyclosporin A
[3]
  block of nucleus pulposus-related effects (in words): blocked efficiently

## etanercept [Embrel^R]
[4]
  NCV (m/s ± SD): 78 ± 14 m/s
  block of nucleus pulposus induced nerve injury (in words): blocked the nucleus pulposus induced nerve injury efficiently

## infliximab [Remicade^R]
[4]
  NCV (m/s ± SD): 79 ± 15 m/s
  block of nucleus pulposus induced nerve injury (in words): blocked the nucleus pulposus induced nerve injury efficiently
